According to patent US7015249B1, “Methods and compositions for treating diabetes” (Purdue Research Foundation, priority 1997, dated 2006):
Marks after values point to notes of the source that are not given here.

Key:
ACO and mAP2 mRNA = assay: Tissue-specific gene expression (ACO, mAP2) by RT-PCR in rats fed experimental diets; assay type: in vivo, rat; conditions: diet 14 days, 1.5% CLA or 0.2% troglitazone, vs control diet
Method: Male Zucker fatty (fa/fa) rats and lean littermates (wt) were obtained at six weeks of age from Genetic Models, Inc. (Indianapolis, Ind.). Because the primary aim of the study was to determine the ability of CLA to improve insulin action and prevent the onset of diabetes, all rats were determined normoglycemic prior to assignment to experimental treatments. (The diets are discussed in the subsequent section). After maintaining rats on experimental diets for 14 days, rats were euthanized by CO2 and cervical dislocation and tissues collected, weighed and frozen. RT-PCR was performed as described above. The genes utilized as markers of tissue and subtype specific PPAR activation included Acyl-CoA Oxidase (ACO; found in the liver and induced by PPARα activation), Adipocyte Specific Protein (mAP2; found in adipose tissue and induced by activation of PPARγ) and ACO in the muscle (induced by PPARβ). […] Body weights were measured twice weekly and average food consumption estimated by measuring differences in weight of freshly supplied diet and diet remaining in feeders two days later. […]

Zucker rats = assay: Plasma insulin, triglyceride and free fatty acid concentrations in Zucker rats; assay type: in vivo, rat; conditions: fed, diets 14 days
Description: Diet components were obtained from Dyets, Inc. (Bethlehem, Pa.) and the CLA isomeric mixture (90% pure mixture) from PharmaNutrients, Chicago, Ill. The CLA mixture had the following isomeric distribution: 42% of a composition including cis,trans-9,11 and trans,cis-9,11-octadecadienoic acid; 43.5% trans,cis-10,12-octadecadienoic acid; 1% cis,cis-9,11-octadecadienoic acid; 1% cis,cis-10,12-octadecadienoic acid; and 1.5% of a composition including trans,trans-9,11-octadecadienoic acid and trans,trans-10,12-octadecadienoic acid, all on a weight percent basis. The CLA mixture also included, on a weight percent basis, about 0.5% linoleate, about 5.5% oleate and about 5% other lipids as discussed above. The thiazolidinedione, TZD (Rezulin™, Parke-Davis, Ann Arbor, MI), was used as a positive control for anti-diabetic activity in these studies. Male Zucker fatty (fa/fa) rats and lean littermates (wt) were obtained at six weeks of age from Genetic Models, Inc. (Indianapolis, Ind.). Because the primary aim of the study was to determine the ability of CLA to improve insulin action and prevent the onset of diabetes, all rats were determined normoglycemic prior to assignment to experimental treatments. After maintaining rats on experimental diets for 14 days, rats were euthanized by CO2 and cervical dislocation and blood collected and immediately analyzed for post-prandial glucose concentrations (see below) or placed into heparinized test tubes for plasma analyses as described below. Epididymal fat pads and livers were harvested and weighed. An aliquot of the epididymal fat pad was isolated into buffered saline for glucose transport analyses and the remaining epididymal fat pad and gastrocnemius muscle were isolated, immediately frozen in liquid nitrogen and stored at −80° C. until mRNA and protein analyses were performed. Three isocaloric, experimental diets were formulated according to a modified AIN-76 mixture containing 6.5% (by weight) fat (diet described in American Institute of Nutrition: Report of the American Institute of Nutrition Ad Hoc Committee on Standards for Nutritional Studies, J. Nutr. 107 1340–1348 (1977) but includes 6.5% by weight fat instead of 5% by weight fat). […] Body weights were measured twice weekly and average food consumption estimated by measuring differences in weight of freshly supplied diet and diet remaining in feeders two days later. […] Blood glucose levels were determined using a One Touch glucose meter (Lifescan, Inc.). Plasma insulin levels were determined using commercially available radioimmunoassay kits (Linco Research, St. Charles, Mo.). Plasma nonesterified fatty acids were quantified using a calorimetric kit (Wako). Plasma triglyceride concentrations were determined using a commercially available kit (Sigma Diagnostics, St. Louis, Mo.).

For Cc1c(C)c2c(c(C)c1O)CCC(C)(COc1ccc(CC3SC(=O)NC3=O)cc1)O2 (centres unmarked) [Troglitazone], the “ACO mRNA expression in tissue with predominantly PPARβ (muscle)” value (ACO and mAP2 mRNA) was “no effect”, the “Free Fatty Acids + S.D.” value (Zucker rats; fa/fa rats) was 0.778 + 0.378^c mMol and the “Plasma Triglycerides ± S.D.” value (Zucker rats; fa/fa rats) was 57.08 ± 12.3^c mg/dl. The “Free Fatty Acids + S.D.” value (Zucker rats; wt (lean) rats) was 1.139 + 0.277^c mMol and the “Plasma Triglycerides ± S.D.” value (Zucker rats; wt (lean) rats) was 61.1 ± 12.1^c mg/dl.
